Experimental findings from patent US6555541B1, “Substituted phenyl compounds with immunosuppressing activity and pharmaceutical compositions” (Astrazeneca UK Limited, priority 2000, dated 2003) are described below.

Structures are written as SMILES. Where a name gives a salt, the structure may show the parent alone.

Regarding `O=C(CNc1ccc(F)c(F)c1)Nc1cc(N2CCNCC2)ccc1Cl` (as salt: hydrochloride), the melting point (usually the temperature of the solid-liquid transition) was 240 °C (dec.).
Regarding `Cc1ccc(CN2CCNCC2)cc1NC(=O)CNc1ccc(F)c(F)c1` (as salt: hydrochloride) [Example 1, 2-(3,4-Difluorophenylano)-N-(2-methyl-5-piperazin-1-ylmethyl-phenyl)-acetamide, trihydrochloride], the melting point was 232 to 248 °C (dec.).
The same measure for `Cc1cc(N2CCNCC2)ccc1NC(=O)CNc1ccc(F)c(F)c1` (as salt: hydrochloride) [Example 10, 2-(3,4-Difluoro-phenylamino)-N-(2-methyl-5-piperazin-1-yl-phenyl)-acetaniide, trihydrochloride]: greater than 230 °C; for `Cc1ccc(CN2CCNCC2)cc1NC(=S)CNc1ccc(F)c(F)c1` [Example 2, 2-(3,4-Difluoro-phenylamino)-N-(2-methyl-5-piperazin-1-ylmethyl-phenyl)-thioacetamide]: 72 to 82 °C (dec.).
Take `Cc1c(Cn2ccnc2)cccc1NC(=O)CNc1ccc(F)c(F)c1` [Example 17, 2-(3,4-Difluorophenylamino)-N-(3-imidazol-1-ylmethyl-2-methylphenyl)acetamide]: the melting point was 160 °C (dec.).
Take `Cc1c(CN(C)C)cccc1NC(=O)CNc1ccc(F)c(F)c1` [Example 18, 2-(3,4-Difluorophenylamino)-N-(3-dimethylaminomethyl-2-methylphenyl)acetamide]: the melting point was 144 °C (dec.).
